In US8592576B2, “Unsymmetrical pyrrolobenzodiazepine-dimers for treatment of proliferative diseases” (Spirogen Sarl, priority 2008, dated 2013):

Key:
A2780 parental cell line = assay: A2780 assay, in vitro cytotoxicity (MTT); type: cell-based; conditions: Homo sapiens, A2780 cells, 72 hours incubation, absorbance 540 nm
Procedure: (§1) Determination of In Vitro Cytotoxicity
A2780 parental cell line was grown in Dulbecco's Modified Eagles' Media (DMEM) containing ˜10% Foetal Calf Serum (FCS) and ˜1% 200 mM L-Glutamine solution and grown in Corning Cellbind 75 cm^2 flasks.
190 μl cell suspension was added (at 1×10^4) to each well of columns 2 to 11 of a 96 well plate (Nunc 96F flat bottom TC plate). 190 μl of media was added to each well of columns 1 and 12. The media was Dulbecco's Modified Eagles' Media (DMEM) (which included ˜10% Foetal Calf Serum (FCS) and ˜1% 200 mM L-Glutamine solution).
Plates were incubated overnight at 37° C. before addition of drug if cells were adherent. 200 μM of the test compound solutions (in 100% DMSO) were serially diluted across a 96 well plate. Each resulting point was then further diluted 1/10 into sterile distilled water (SDW).
To the cell negative blanks and compound negative control wells, 10% DMSO was added at 5% v/v. Assay plates were incubated for the following durations at 37° C. in 5% CO2 in a humidified incubator for 72 hours. Following incubation, MTT solution to a final concentration of […] was added to each well. Plates were then incubated for a further 4 hours at 37° C. in 5% CO2 in a humidified incubator. […]
Plates were read at 540 nm absorbance using an Envision plate reader. Data was analysed using Microsoft Excel and GraphPad Prism and IC50 values obtained.

[1] = tested on: K562 human chronic myeloid leukaemia cells; assay: K562 assay, in vitro cytotoxicity (MTT); type: cell-based; conditions: drug incubation 1 hour or 96 hours (not specified which), dose reducing final optical density to 50% of control
Procedure: as §1
K562 human chronic myeloid leukaemia cells were maintained in RPM1 1640 medium supplemented with 10% fetal calf serum and 2 mM glutamine at 37° C. in a humidified atmosphere containing 5% CO2 and were incubated with a specified dose of drug for 1 hour or 96 hours at 37° C. in the dark. The incubation was terminated by centrifugation (5 min, 300 g) and the cells were washed once with drug-free medium. Following the appropriate drug treatment, the cells were transferred to 96-well microtiter plates (10^4 cells per well, 8 wells per sample). Plates were then kept in the dark at 37° C. in a humidified atmosphere containing 5% CO2. The assay is based on the ability of viable cells to reduce a yellow soluble tetrazolium salt, 3-(4,5-dimethylthiazol-2-yl)-2,5-diphenyl-2H-tetrazolium bromide (MTT, Aldrich-Sigma), to an insoluble purple formazan precipitate. Following incubation of the plates for 4 days (to allow control cells to increase in number by approximately 10 fold), 20 μL of MTT solution (5 mg/mL in phosphate-buffered saline) was added to each well and the plates further incubated for 5 h. […] The optical density was then read at a wavelength of 550 nm on a Titertek Multiscan ELISA plate reader, and a dose-response curve was constructed. […]

Work on `COc1ccc(C2=CN3C(=O)c4cc(OC)c(OCCCOc5cc6c(cc5OC)C(=O)N5C=C(c7ccc(N)cc7)C[C@H]5C=N6)cc4N=C[C@@H]3C2)cc1` [Compound 11, (S)-2-(4-aminophenyl)-7-methoxy-8-(3-((S)-7-methoxy-2-(4-methoxyphenyl)-5-oxo-5,11a-dihydro-1H-pyrrolo[2,1-c][1,4]benzodiazepine-8-yloxy)propoxy)-1H-pyrrolo[2,1-c][1,4]benzodiazepine-5(11aH)-one] yielded an IC50 (A2780 parental cell line) of 11.7 µM.
Molecule `COc1ccc(C2=CN3C(=O)c4cc(OC)c(OCCCCCOc5cc6c(cc5OC)C(=O)N5C=C(c7ccc(N)cc7)C[C@H]5C=N6)cc4N=C[C@@H]3C2)cc1` [Compound 13, (S)-2-(4-aminophenyl)-7-methoxy-8-(5-((S)-7-methoxy-2-(4-methoxyphenyl)-5-oxo-5,11a-dihydro-1H-pyrrolo[2,1-c][1,4]benzodiazepine-8-yloxy)pentyloxy)-1H-pyrrolo[2,1-c][1,4]benzodiazepine-5(11aH)-one] has an IC50 [1] of 30 µM.
